Assay results reported in US20240390383A1, “DIOXAZINES AND THEIR USE IN TREATMENT OF GBA-RELATED DISEASES” (ZEVRA DENMARK A/S, priority 2021, published 2024).

Molecular target: T1, GCase (GBA) in human fibroblast cell line GM10915 harboring the L444P GBA mutation (Homo sapiens, UniProt P04062, L483P)
T1 construct: Human fibroblast cell line GM10915 harboring the L444P GBA mutation; host or cells: GM10915 human fibroblasts
T1 sequence (P04062 40-536 L483P): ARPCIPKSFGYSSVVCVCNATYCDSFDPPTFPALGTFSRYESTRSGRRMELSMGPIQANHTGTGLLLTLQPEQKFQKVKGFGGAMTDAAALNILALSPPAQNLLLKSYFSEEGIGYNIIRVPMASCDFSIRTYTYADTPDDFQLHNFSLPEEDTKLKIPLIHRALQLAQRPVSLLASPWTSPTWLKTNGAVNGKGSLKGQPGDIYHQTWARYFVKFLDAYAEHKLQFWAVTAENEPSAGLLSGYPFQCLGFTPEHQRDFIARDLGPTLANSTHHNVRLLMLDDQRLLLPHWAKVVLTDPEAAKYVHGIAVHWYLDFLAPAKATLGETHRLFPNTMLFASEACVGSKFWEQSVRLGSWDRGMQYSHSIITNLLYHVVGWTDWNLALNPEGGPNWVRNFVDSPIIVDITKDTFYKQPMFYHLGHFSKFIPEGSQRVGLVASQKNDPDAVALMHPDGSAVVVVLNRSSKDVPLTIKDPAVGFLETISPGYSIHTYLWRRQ
Test: GCase activity assay (4-MUG substrate, normalised to crystal violet staining) in L444P GBA fibroblasts
Type: cell-based
Conditions: 5 days exposure; for GBA EC1.5: concentration giving 150% GCase activity (1.5-fold induction), 8-point dose range; for Emax: maximum percent GCase activity relative to untreated cells in the dose range tested
Experimental: Human fibroblast cell line GM10915 harboring the L444P GBA mutation was obtained from Coriell Biorepositories.
All chemicals (Glacial acetic acid, Glycine, 4-Methylumbelliferyl b-D-glucopyranoside (4-MUG), Sodium acetate trihydrate, Sodium hydroxide, Crystal violet, SDS, Ammonium hydroxide) were obtained from Sigma-Aldrich (Denmark) Compounds tested for GCase activity were dissolved in H2O or DMSO.
The GM10915 cell line was cultured under standard cell culture conditions (37° C. and 5% CO2) in complete DMEM medium supplemented with nonessential amino acids (NEAA), 1% Pen-Strep and 12% FCS. Cells were seeded at a density of 10^4 cells/well in 100 μL complete medium in one black 96-well plate for glucosylceramidase (GCase) activity measurement and in one clear 96-well plate for crystal violet staining to correct for cell density. Crystal violet staining is performed to obtain quantitative information about the relative density of cells adhering to multi-wells plates.
The assay was adapted from Sawkar et al (2002) and briefly described in the following. The day after seeding of cells, the medium was replaced with fresh medium containing the compounds to be tested. Compounds were tested in duplicate and in an 8-point diluted dose range to obtain a dose response. Cells were exposed with compounds for five days. Fresh compound was added every 2-3 days. PBS was included to define the basal level of GCase activity.
Cells were washed three times with 200 μL PBS per well and 50 μL of 2.5 mM 4-MUG buffer (4-MUG dissolved in 0.2 M acetate buffer pH 4.0) was added and the cells were incubated at 37° C., 5% CO2 for 23 hours. The reaction was stopped by adding 150 μL 0.2 M glycine buffer (pH 10.8). Fluorescence was measured with a Varioskan® Flash reader (Thermo Scientific) at an excitation/emission setting of 365/445 nm.
Cells were treated with compounds in a parallel setup identical to the setup to test for GCase activity. At the end of compound treatment, cells were washed once with 200 μL PBS per well and 50 μL 0.1% w/v crystal violet (in H2O) was added. Following 10 min. of incubation, the crystal violet solution was removed, and the cells were washed three times with 200 μL PBS and 100 μL 1% SDS was added to solubilize the stain. The plate was agitated on an orbital shaker for 10-30 min. Absorbance (A) is measured at […] using a Varioskan® Flash reader (Thermo Scientific).
The fluorescence signal (F) derived from the GCase measurement is normalized to the absorbance signal (A) derived from the crystal violet staining. The percent GCase activity resulting from compound treatment is calculated relative to the basal activity obtained from untreated cells.
Maximal effect of compounds (Emax) is determined from the dose response effects as the maximum “Percent GCase activity” achieved in the dose range tested.

| Structure (SMILES) | GBA EC1.5 [µM] | Emax [%] |
| --- | --- | --- |
| CN1C[C@@H]2CN(CC3CON=C(C4(C)CCNCC4)O3)C[C@@H]2C1 (stereo partly shown) [compound 592] | 50 | 110 |
| COC1CN(C(C)C)CCC1C1=NOCC(CN2CCCCC2)O1 (racemic) [compound 714, rac-3-(1-isopropyl-3-methoxypiperidin-4-yl)-5-(piperidin-1-ylmethyl)-5,6-dihydro-1,4,2-dioxazine] | 16 | 213 |
| CC(C)(C1=NOCC(CN2CCCCC2)O1)C1CCCNC1 (racemic) [compound 473, rac-5-(piperidin-1-ylmethyl)-3-(2-(piperidin-3-yl)propan-2-yl)-5,6-dihydro-1,4,2-dioxazine di-2,2,2-trifluoroacetate] | 9 | 181 |
| COC1CCN(C)CC1C1=NOCC(CN2CCCCC2)O1 (racemic) [compound 700, rac-3-(4-methoxy-1-methylpiperidin-3-yl)-5-(piperidin-1-ylmethyl)-5,6-dihydro-1,4,2-dioxazine] | 15 | 270 |
| NCC(=O)N1CCC(C2=NOCC(CN3CCCCC3)O2)C1 (racemic) [compound 699, rac-2-amino-1-(3-(5-(piperidin-1-ylmethyl)-5,6-dihydro-1,4,2-dioxazin-3-yl)pyrrolidin-1-yl)ethan-1-one] | 38 | 203 |
| CN1CCCC(C)(C2=NOCC(CN3CCCCC3)O2)C1 (racemic) [compound 529, rac-3-(1,3-dimethylpiperidin-3-yl)-5-(piperidin-1-ylmethyl)-5,6-dihydro-1,4,2-dioxazine] | 11 | 222 |
| CNC1CNCC(C2=NOCC(CN3CCCCC3)O2)C1 (racemic) [compound 756, rac-N-methyl-5-(5-(piperidin-1-ylmethyl)-5,6-dihydro-1,4,2-dioxazin-3-yl)piperidin-3-amine] | 39 | 121 |
| FC(F)(F)CN1CCCC(CC2=NOCC(CN3CCCCC3)O2)C1 (stereo not shown) [compound 587] | 50 | 100 |
| C1CCN(CC2CON=C(C3C4CNC3C4)O2)CC1 (racemic) [compound 548, rac-3-(2-azabicyclo[2.1.1]hexan-5-yl)-5-(piperidin-1-ylmethyl)-5,6-dihydro-1,4,2-dioxazine] | 21 | 281 |
| CC(N)C(=O)N1CCC(C2=NOCC(CN3CCCCC3)O2)C1 (racemic) [compound 691, rac-2-amino-1-(3-(5-(piperidin-1-ylmethyl)-5,6-dihydro-1,4,2-dioxazin-3-yl)pyrrolidin-1-yl)propan-1-one] | 25 | 252 |
| CC(=O)N1CCCC1C1=NOCC(CN2CCCCC2)O1 (stereo not shown) [compound 692] | 50 | 107 |
| OCC1(C2=NOCC(CN3CCCCC3)O2)CCNCC1 (racemic) [compound 722, rac-(4-(5-(piperidin-1-ylmethyl)-5,6-dihydro-1,4,2-dioxazin-3-yl)piperidin-4-yl)methanol] | 26 | 153 |
| C[C@@]1(C2=NOC[C@H](CN3CCCCC3)O2)CCCNC1 [compound 882] | 5 | 214 |
| CC1CC(C2=NOCC(CN3CCCCC3)O2)CN1 (racemic) [compound 560, rac-3-(5-methylpyrrolidin-3-yl)-5-(piperidin-1-ylmethyl)-5,6-dihydro-1,4,2-dioxazine] | 8 | 244 |
| CN1CCC(C2=NOCC(C)(CN3CCCCC3)O2)CC1 (stereo not shown) [compound 870] | 6 | 217 |
| CN1CCO[C@@H]2CN(CC3CON=C(C4(C)CCNCC4)O3)C[C@@H]21 (stereo partly shown) [compound 604] | 50 | 119 |
| CC(C)N1CCC(C2=NOCC(CN3CCCCC3)O2)CC1 (racemic) [compound 719, rac-3-(1-isopropylpiperidin-4-yl)-5-(piperidin-1-ylmethyl)-5,6-dihydro-1,4,2-dioxazine] | 10 | 242 |
